Source: patent EP0092173A1, “11-Beta-chlorosteroids, process for their preparation and pharmaceutical compositions containing them” (SCHERING AKTIENGESELLSCHAFT, priority 1982, dated 1983)

Tests used:
[1] = system: infantilen weiblichen Kaninchen; assay: Clauberg test for progestational (gestagenic) activity after oral administration; assay type: in vivo; details: for McPhail: infantile female rabbits; for Schwellendosis (McPhail 1,5) für die gestagene Wirkung: minimum amount for a positive effect (McPhail 1,5)
From the text: Die gestagene Wirkung wurde im üblichen Clauberg-Test nach oraler Applikation an infantilen weiblichen Kaninchen ermittelt.
Die zur Erzielung eines positiven Effekts benötigte Mindestmenge wird durch den McPhail-Wert 1,5 ausgedrückt.
In der folgenden Tabelle werden die Ergebnisse des Tests zusmmengestellt.

Androgen-Rezeptor = Androgen-Rezeptor (Homo sapiens, UniProt P10275); assay: Androgen receptor test (competition factor); assay type: binding; details: assessment in words, based on the competition factor
Sequence of Androgen-Rezeptor (P10275 whole entry): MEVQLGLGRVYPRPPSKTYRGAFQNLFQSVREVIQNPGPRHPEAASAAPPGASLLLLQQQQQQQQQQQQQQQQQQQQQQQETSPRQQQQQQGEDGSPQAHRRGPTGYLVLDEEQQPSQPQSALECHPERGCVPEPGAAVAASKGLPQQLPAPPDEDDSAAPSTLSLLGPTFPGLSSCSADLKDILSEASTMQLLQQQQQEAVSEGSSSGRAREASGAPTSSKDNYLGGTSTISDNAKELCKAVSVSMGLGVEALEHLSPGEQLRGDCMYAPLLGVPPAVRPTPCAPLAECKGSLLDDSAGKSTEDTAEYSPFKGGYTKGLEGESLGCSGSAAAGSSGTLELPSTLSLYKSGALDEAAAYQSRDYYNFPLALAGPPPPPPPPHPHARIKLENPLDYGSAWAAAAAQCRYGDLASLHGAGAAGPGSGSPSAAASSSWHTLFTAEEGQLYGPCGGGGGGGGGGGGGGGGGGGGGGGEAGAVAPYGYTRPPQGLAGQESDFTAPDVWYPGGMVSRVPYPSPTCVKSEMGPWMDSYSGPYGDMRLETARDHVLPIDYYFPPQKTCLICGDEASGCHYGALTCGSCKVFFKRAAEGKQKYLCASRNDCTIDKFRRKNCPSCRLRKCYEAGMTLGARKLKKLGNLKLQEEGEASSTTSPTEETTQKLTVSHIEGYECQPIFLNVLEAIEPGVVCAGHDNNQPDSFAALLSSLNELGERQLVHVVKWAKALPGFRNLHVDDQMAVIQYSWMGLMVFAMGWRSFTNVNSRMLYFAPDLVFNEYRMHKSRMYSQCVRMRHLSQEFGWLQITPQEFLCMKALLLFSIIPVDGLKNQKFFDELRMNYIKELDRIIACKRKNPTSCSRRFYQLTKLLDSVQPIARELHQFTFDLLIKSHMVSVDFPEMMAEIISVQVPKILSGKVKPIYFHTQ

SMILES | McPhail ([1]; Dosis 0,01 mg) | McPhail ([1]; Dosis 0,1 mg) | McPhail ([1]; Dosis 0,03 mg) | McPhail ([1]; Dosis 0,003 mg) | Schwellendosis (McPhail 1,5) für die gestagene Wirkung [1] | androgene Nebenwirkung (Androgen-Rezeptor)
CC[C@]12C[C@H](Cl)[C@H]3[C@@H](CCC4=CC(=O)CC[C@@H]43)[C@@H]1CC[C@@]2(O)C#CCl [Verbindung A, 11ß-Chlor-17α-chlorethinyl-17ß-hydroxy-18-methyl-4-östren-3-on] | 1,9 | 3,3 | 3,0 | 1,2 | ~0,003 mg | nur eine ganz geringfügige androgene Nebenwirkung
C#C[C@]1(O)CC[C@H]2[C@@H]3CCC4=CC(=O)CC[C@@H]4[C@H]3[C@@H](Cl)C[C@@]21CC [Verbindung B, 11ß-Chlor-17α-ethinyl-17ß-hydroxy-18-methyl-4-östren-3-on, reference compound] | 1,4 |  | 2,5 | 1,1 | ~0,01 mg | noch schwach androgen wirksam
